Experiments:
Format in all cases: in vivo, human
[1] = tested on: total iron binding capacity (TIBC); assay: Phase 2a clinical trials in stage 3, 4, or 5 CKD patients: iron-related parameters
[2] = Phase 1b study: pharmacokinetics of vadadustat and its metabolites in plasma of hemodialysis subjects with anemia associated with CKD
Protocol: The primary objective of the study was to assess the pharmacokinetics (PK) of vadadustat 600, 750, and 900 mg daily, and IV ESA (darbepoetin alfa or epoetin alfa) in hemodialysis subjects with anemia associated with CKD. Additional objectives included to evaluate the pharmacodynamics (PD) of vadadustat 600, 750, and 900 mg daily, and IV ESA (darbepoetin alfa or epoetin alfa) in hemodialysis subjects with anemia associated with CKD and to assess the safety and tolerability of vadadustat 600, 750, and 900 mg daily and IV ESA (darbepoetin alfa or epoetin alfa) in hemodialysis subjects with anemia associated with CKD.
Study Design. This was a Phase 1b, randomized, open-label study to evaluate the PK, PD, safety, and tolerability of vadadustat 600, 750, or 900 mg daily, or ESA (darbepoetin alfa or epoetin alfa) in hemodialysis subjects with anemia associated with CKD. The study included a 28-day Screening and Randomization period, a 10-day Treatment Period, and a 30-day Safety Follow up Period after the last dose of study drug (vadadustat or ESA). For subjects randomized to vadadustat, study duration also included an ESA washout period of a minimum of 5 days for epoetin alfa or 9 days for darbepoetin alfa or 9-day ESA Washout period prior to dosing on Day 1.
A total of 46 subjects were enrolled in the study. Written informed consent were obtained before any screening procedures were performed. Subjects were screened within 28 days prior to randomization. Eligible subjects were randomized in a 2:2:2:1 ratio to 1 of 4 treatment groups (600, 750, or 900 mg vadadustat QD, or ESA. Randomized subjects began their 10-day Treatment Period within 36 days of initiating screening.
Eligible subjects were randomly assigned in a 2:2:2:1 ratio to 1 of 4 treatment groups: Group 1—vadadustat 600 mg once daily (QD); Group 2—vadadustat 750 mg QD; Group 3—vadadustat 900 QD; and Group 4—IV ESA. Randomization was stratified by the mean weekly ESA dose calculated over a period of 8 weeks prior to the randomization visit. For darbepoetin, the groups were divided into low dose darbepoetin alfa group (<0.5 μg/kg/week) and high dose darbepoetin alfa group (>0.5 to <1.5 μg/kg/week). For epoetin, the groups were divided into low dose epoetin alfa group (≤90 U/kg/week) and high dose epoetin alfa group (>90 to <300 U/kg/week).
Subjects began dosing on Day 1 and took vadadustat at approximately the same time each day for a total of 10 days. On Day 1 and Day 8, subjects took vadadustat after all predose procedures are completed and within 30 minutes prior to the start of dialysis so that the 1-hour post dose blood sample for PK and PD was collected during dialysis. Vadadustat could be taken with or without food. Subjects were instructed to make every effort to take the drug consistently, either with or without food. Subjects were instructed to swallow the tablets whole with water.
PK and EPO Sample. For each vadadustat treatment group, blood samples for vadadustat PK (and its metabolites) and EPO were collected at the following time points: Day 1: predose, and at 1, 2, 3, 4, 5, 8, and 11 hours post dose; Day 2: 24 hours (−2 hours) post Day 1 dose; Day 6: blood sample for EPO analysis only was collected predose on Day 6; Day 8: predose, and at 1, 2, 3, 4, 5, 8, 11 hours post dose, Day 10 or EOT: predose. For the ESA treatment group, blood samples for analysis of EPO were collected at the following time points: Day 1: predose, and at 0.25, 1, 2, 3, 4, 5, 8, and 11 hours post dose; Day 2: 24 hours (−2 hours) post Day 1 dose.
Primary Endpoints. […]

Hb = assay: Phase 1b study: pharmacodynamics, Hb, reticulocytes, iron indices, hepcidin; conditions: 10-day Treatment period
Text: PD Sampling. For all vadadustat and ESA treatment groups, in addition to EPO, blood samples for Hb, reticulocytes and iron indices for PD analyses were collected on Day 1, Day 6 and Day 10. Hepcidin were collected predose on Day 1, Day 6, and Day 10 for PD analysis.
Secondary Endpoints. For each treatment group, PD parameters included, but were not limited to, as deemed appropriate: hepcidin, erythropoietin (EPO), iron indices (iron, ferritin, total iron-binding capacity [TIBC], TSAT), Hb, and reticulocytes.

[3] = Phase 1b study: safety and tolerability
Text: All subjects were followed for safety for 30 days after the Day 10 visitor 30 days after their last dose of study drug (vadadustat or ESA) if they discontinued study drug treatment early. Subjects returned to the clinic for safety assessments 2-5 days after completing Day 10/EOT and concluded the study with a follow-up telephone call to assess for AEs and concomitant medications 30 days after their last dose of study drug.
Safety Endpoints. Safety could be evaluated by: adverse events (AE), electrocardiogram (ECG), vital signs measurements, and clinical laboratory values.
Safety Population was defined as all subjects who received at least one dose of study drug. This population was analyzed based upon the actual treatment received.

| SMILES | TIBC versus dose [1] | serum iron levels with the increase in TIBC [1] | transferrin saturation (TSAT) [1] | total iron binding capacity (TIBC) levels ([1]; 6 weeks post administration, compared to placebo treated patients) | vadadustat exposure (AUC0-24 and Cmax) versus dose ([2]; Day 1 and Day 8) | exposure for vadadustat, as measured by AUC0-24, versus dose ([2]; Day 1 dosing, 600 to 750 to 900 mg) | Mean apparent total body clearance (CL/F) values across doses ([2]; Day 8, 600, 750, 900 mg) | Tmax ([2]; human, plasma, oral, 600, 750, and 900 mg groups, Day 1 and Day 8, during the dialysis, read-out: median Tmax of vadadustat) [h] | accumulation versus dose ([2]; most pronounced in the 900 mg vadadustat treatment group) | mean Hb levels versus dose (Hb) | incidence of drug-related Treatment Emergent Adverse Events (TEAEs) ([3]; 3 vadadustat treatment arms) | safety concerns ([3]; 600, 750, 900 mg QD, 10 days) | tolerability ([3]; oral administration, 600, 750, 900 mg QD, 10 days) |
| --- | --- | --- | --- | --- | --- | --- | --- | --- | --- | --- | --- | --- | --- |
| O=C(O)CNC(=O)c1ncc(-c2cccc(Cl)c2)cc1O [Compound 1, {[5-(3-chlorophenyl)-3-hydroxypyridine-2-carbonyl]amino}acetic acid] | dose-related increase | not associated with an increase in serum iron levels | decrease | increase | – | – | – | – | – | – | – | – | – |
| O=C(O)CNC(=O)c1ncc(-c2cccc(Cl)c2)cc1O [vadadustat, {[5-(3-chlorophenyl)-3-hydroxypyridine-2-carbonyl]amino}acetic acid] | – | – | – | – | dose-dependent increase | increased with increasing dose | similar | 2 to 3 | dose-dependent increase in accumulation | not a dose-dependent increase | infrequent and similar across all 3 treatment arms | No major safety concerns were observed | generally well tolerated |

From patent US12697330B2, “Therapeutic methods using vadadustat” (Akebia Therapeutics, Inc., priority 2021, dated 2026)
